Read-outs that look alike come from different tables or passages of the source.
Columns and labels:
[1] = test system: cholic acid and chenodeoxycholic acid synthetic activity in liver cells; experiment: Synthetic activity of bile acid (cholic acid and chenodeoxycholic acid) in incubated liver cells (Experimental Example 3); format: cell-based, male Wistar rats; details: Rattus norvegicus, Hepatocyte, 24 hours, 37° C., control 100; for activity at 1 µM: 10^-6 M; for activity at 0.1 µM: 10^-7 M; for activity at 0.01 µM: 10^-8 M
Protocol: Influences on Synthetic Activity of Bilic Acid in Incubated Liver Cell
The liver cells were separated from male Wistar rats 5.0-5.5 weeks old using a reflux method in accordance with the method of Nakamura et al (Toshikazu Nakamura "The Experimental Method for the Primary Cultured Hepatocytes", 1987). In this case, the separation of the cells was started at 9-10:00 a.m. The separated liver cells were floated in a Williams E medium inactivated by heat-treatment and containing 10% FBS, 20 mU/m.iota. insulin, […] dexamethasone, 100 IU/m.iota. peniciline and 100 μg/m.iota. streptomycin so that the cell density became 1×10^5 cells/cm^2 /0.2 m.iota.. The liver cells were planted in a cell density of 1×10^5 cells/cm^2 /0.2 m.iota. in a dish having a diameter of 60 mm. After incubation at 37° C. for 4 hours, a medium exchange was made and the medium was changed to 3 m.iota.. Next, [4-^14 C] cholesterol was added in an amount of 11.655 kBq per dish, and a 0.33% ethanol solution of each test drug was added. Control used only 0.33% ethanol. After incubation was carried out at 37° C. for 24 hours, the synthetic activity of cholic acid and chemodexycholic acid generated in the cells and the medium were measured.
Measurement of Cholic Acid and Chenodeoxycholic Acid Synthetic Activity
The measurement of cholic acid and chenodeoxycholic acid synthetic activity was carried out in accordance with the method of M. G. Pricen et al (Hans M. G. Pricen, Chrisstine M. G. HuJismans, Folkerr Kuipers, Roel J. Vonk and Herman Jan M. Kempen, J. Clin. Invest., 78: 1064-1071, 1986). Twenty-four hours later, the cells and the medium were collected from the incubated liver cells and the cells were pulverized by a ultrasonic pulverizer. Bile acid was separated and eluted by a column cartridge having an opposite phase system, i.e., "Sep-pak"® C18 (Waters Associates, Milford, Mass.), and the conjugation of conjugated bile acid was hydrolyzed using choloylglycine hydrolase. The extraction of bile acid was carried out using chloroform after the solution was rendered acidic by hydrochloric acid. The extract was dissolved in 100 μ.iota. of water:methanol (1:4, containing 40 μg/10 μ.iota. cholic acid and 100 μg/100 μ.iota. chenodeoxycholic acid). 80 μ.iota. of this solution was spotted onto an aluminum plate (MERCK, ART 5582) and was developed using a developing solution consisting of benzene/1,4-dioxane/acetic acid (20:10:2). After the TLC plate was exposed to an iodine gas stream and each spot of bile acid was confirmed, it was cut off and its radioactivity was measured by a liquid scintillation counter. To correct the proportion of elution of the Sep-pak and the hydroclysis and extraction of conjugated bile acid by choloylglycine hydrolase, 2 nCi of [^3 H(G)] taurocholic acid was added and 3H of the spot of cholic acid was measured after the supersonic pulverization and correction was thus carried out (TsuJita, Y., Kuroda, M., Shimada, Y., Tanzawa, K., Arai, M., Kenko, I., Tanaka, M., Tarumi, C., Watanabe, Y., and Fujii, Biochemical et Biophysics Acta. 877:50-60, 1986).
Non-radioactive cholic acid and chenodeoxycholic acid were added as a carrier, to clarify the position of the spot by the iodine gas stream when bile acid was developed, but for the β-muricholic acid, the position of the spot was indefinite even when the non-radioactive acids were added. Therefore, the portion estimated by the Rf value described in the reference was cut off and measured again.

bile secretion = experiment: Cholagogic action, bile secretion (Experimental Example 5); format: in vivo, male Wistar rats; details: intraduodenal
Protocol: After male Wistar rats 7 weeks old were fasted for 24 hours, they were anesthetized by the interperitoneal administration of 1.25 g/kg (volume 2 m.iota./kg) of urethane. A polyethylene canula (SP-10, a product of Natsume Seisakusho) was inserted into a bile duct and after the bile was caused to flow out for 30 minutes, the bile was collected in the cource of 1 hour. Thereafter, each test drug was suspended or dissolved in a 1% aqueous Tween-80 solution, and was administered into the duodenum at a rate of 5 m.iota./kg. Furthermore, the bile was collected every hour in the course of five hours, and its weight was measured. Only a 1% Tween-80 solution was given as a control.
The results are tabulated in Tables 6, 7, 8, 9 and 10, wherein the bile secretion amount every hour was represented by a percentage with the bile secretion amount (mg) one hour before the dose of the test drug being 100.

Acute toxicity test = details: mouse, in vivo, ip; male S.P.P. mice, abdominally administered; Table 11
Protocol: The acute toxicity test was carried out by abdominally administering each test drug to male S.P.P. mice and determining an LD50 value.

[2] = test system: cholesterol synthesis in liver slices; experiment: Cholesterol synthesis from [1-14C] acetic acid in liver slices (Experimental Example 2); format: cell-based, male Wistar rats; details: drug final concentration 0.1-1.0 mM, 37° C., 120 minutes; control 100; Table 2
Protocol: Liver slices (0.5 mm) were prepared from male Wistar rats 5 weeks old acclimated for 10 days in a bright/dark inversion raising chamber (bright period: 8:00 p.m.-8:00 a.m.). […] Incubation was carried out at 37° C. for 120 minutes in 95% oxygen and 5% carbon dioxide. The reaction was stopped by adding 1 m.iota. of 15% potassium hydroxide/ethanol, and saponification was carried out at 80° C. for 2 hours. The sterol fraction was extracted by petroleum ether and was evaporated to driness. Thereafter, 1 m.iota. of acetone/ethanol (1:1) and 1 m.iota. of 0.5% digitonine were added, and the mixture was left standing for a night at room temperature. The precipitate was collected by centrifugal separation and was washed with 2 m.iota. of acetone/ether (1:1). The precipitate was further centrifuged. After the supernatant was discarded, the precipitate was dissolved in methanol and its radioactivity was measured.

hyperlipemia = experiment: Anti-hyperlipemia test in rats on high fat food (Experimental Example 1); format: in vivo, Male Wistar rats; details: peroral once a day, two weeks, control 100, Table 1
Description: Male Wistar rats 6.5 weeks old were allowed to freely intake a high fat food (containing 1% of cholesterol, 0.5% of sodium cholate, 12% of beef tallow and 20% of standard chow) in the cource of two weeks, to thus cause an outbreak of hyperlipemia. The dose of the drug was started simultaneously with the application of the high fat food, and was perorally given once a day through a stomach tube until the end of the experiment. The drugs were all suspended in a cane sugar fatty acid ester and were administered. The oily compounds were adjusted in advance to 100 mg/m.iota. by diethyl ether. A suitable amount was collected at the time of the dose and after diethyl ether was evaporated and removed, it was suspended in a cane sugar fatty acid ester (1% ryoto sugar ester) and then given. After the final dose of the drug, the rats were fasted for about 18 hours, and the blood was sampled to measure the blood serum lipid. The blood serum lipid was measured by using a TBA-380 biochemical analyzer (a product of Toshiba Medical Co.,) unless a particular hindrance occurred.

[3] = Table 4, read-out: Relative amount of synthesized chenodeoxycholic acid
[4] = Table 4, read-out: Relative amount of synthesized cholic acid
[5] = 0-1 hour after dose, control 82.9, Table 6
[6] = 1-2 hour after dose, control 74.1, Table 6
[7] = 2-3 hour after dose, control 66.1, Table 6
[8] = 3-4 hour after dose, control 59.8, Table 6
[9] = 4-5 hour after dose, control 53.3, Table 6
[10] = Table 3, read-out: Relative amount of synthesized chenodeoxycholic acid
[11] = Table 3, read-out: Relative amount of synthesized cholic acid

Row | Compound | activity at 1 µM [1, 3] | activity at 1 µM [1, 4] | Bile secretion amount, percentage of the hour before dose (bile secretion; [5]) | Bile secretion amount, percentage of the hour before dose (bile secretion; [6]) | Bile secretion amount, percentage of the hour before dose (bile secretion; [7]) | Bile secretion amount, percentage of the hour before dose (bile secretion; [8]) | Bile secretion amount, percentage of the hour before dose (bile secretion; [9]) | LD50 (Acute toxicity test) | Relative amount of synthesized cholesterol (%) [2] | further results
1 | C[C@H]1COC(O)[C@H]2[C@@H]1CC[C@@H]2C (stereo partly drawn) [Definite Example 44, (4R, 4aR, 7S, 7aR)-1,3,4,4a, 5,6,7,7a-octahydro-4,7-dimethylcyclopenta[c]pyran-1-ol] | 155% | 130% | 137.2% | 95.0% | 78.4% | 66.5% | 59.8% | 389 mg/kg |  | 
2 | CCOC(C)O[C@@H]1OC=C(C(=O)OC)[C@H]2CC=C(C=O)[C@@H]12 (stereo partly drawn) [Definite Example 22, methyl (1S, 4aS, 7aS)-1-[1-(ethoxy)ethoxy]-7-formyl-1,4a, 5,7a-tetrahydrocyclopenta[c]pyran-4-carboxylate] |  |  |  |  |  |  |  |  | 86.2% | 
3 | C[C@@H](CO)[C@H]1CC[C@H](C)[C@H]1CO [Definite Example 45, (2R)-2-[(1R, 2R, 3S)-2-(hydroxymethyl)-3-methylcyclopent-1-yl]propan-1-ol] |  |  | 163.8% | 99.7% | 78.6% | 67.8% | 59.1% | 406 mg/kg |  | activity at 1 µM [1, 10]: 152%; activity at 1 µM [1, 11]: 146%; activity at 0.1 µM [1, 10]: 119%; activity at 0.1 µM [1, 11]: 121%; activity at 0.01 µM [1, 10]: 112%; activity at 0.01 µM [1, 11]: 108%; Bile secretion amount, percentage of the hour before dose (bile secretion; 0-1 hour after dose, control 87.7, Table 7): 163.4%; Bile secretion amount, percentage of the hour before dose (bile secretion; 1-2 hour after dose, control 75.3, Table 7): 99.6%; Bile secretion amount, percentage of the hour before dose (bile secretion; 2-3 hour after dose, control 65.0, Table 7): 75.2%; Bile secretion amount, percentage of the hour before dose (bile secretion; 3-4 hour after dose, control 58.7, Table 7): 61.7%; Bile secretion amount, percentage of the hour before dose (bile secretion; 4-5 hour after dose, control 51.8, Table 7): 53.3%
4 | COC(=O)C1=COC(OC(=O)c2ccccc2)C2C(C)=CCC12 [Definite Example 36, methyl (2S, 4aS, 7aS)-1-benzoyloxy-1,4a, 5,7a-tetrahydro-7-methylcyclopenta[c]pyran-4-carboxylate] |  |  |  |  |  |  |  |  | 72.4% | 
5 | COC(=O)C1=COC(O)[C@@H]2[C@H](C)CC[C@H]12 (stereo partly drawn) [Definite Example 31, methyl (4aS, 7R, 7aR)-1,4a, 5,6,7,7a-hexahydro-1-hydroxy-7-methylcyclopenta[c]pyran-4-carboxylate] | 113% | 105% |  |  |  |  |  | 814 mg/kg |  | Blood serum cholesterol (%) (hyperlipemia; 10 mg/kg): 82.0%; Blood serum triglyceride (%) (hyperlipemia; 10 mg/kg): 79.0%; Blood serum cholesterol (%) (hyperlipemia; 30 mg/kg): 96.1%; Blood serum triglyceride (%) (hyperlipemia; 30 mg/kg): 76.5%; Bile secretion amount, percentage of the hour before dose (bile secretion; 0-1 hour after dose, control 84.1, Table 8): 126.7%; Bile secretion amount, percentage of the hour before dose (bile secretion; 1-2 hour after dose, control 72.5, Table 8): 88.0%; Bile secretion amount, percentage of the hour before dose (bile secretion; 2-3 hour after dose, control 63.8, Table 8): 73.0%; Bile secretion amount, percentage of the hour before dose (bile secretion; 3-4 hour after dose, control 56.7, Table 8): 63.7%; Bile secretion amount, percentage of the hour before dose (bile secretion; 4-5 hour after dose, control 51.2, Table 8): 55.1%
6 | CC1=COC(O)[C@H]2[C@@H]1CC[C@@H]2C (stereo partly drawn) [Definite Example 43, (4aS, 7S, 7aR)-1,4a, 5,6,7,7a-hexahydro-4,7-dimethylcyclopenta[c]pyran-1-ol] | 105% | 109% | 156.2% | 95.2% | 76.1% | 65.7% | 58.3% | 231 mg/kg |  | 
7 | COC(=O)C1=CO[C@@H](OC(C)=O)[C@@H]2C(C)=CC[C@H]12 [Definite Example 38, methyl (1S, 4aS, 7aS)-1-acetoxy-1,4a, 5,7a-tetrahydro-7-methylcyclopenta[c]pyran-4-carboxylate] |  |  |  |  |  |  |  |  | 72.8% | 
8 | COC(=O)C1=COC(O)[C@@H]2C(C=O)=CC[C@H]12 (stereo partly drawn) [Definite Example 23, methyl (4aS, 7aS)-7-formyl-1,4a, 5,7a-tetrahydro-1-hydroxycyclopenta[c]pyran-4-carboxylate] |  |  |  |  |  |  |  |  | 80.1% | 
